We go through 3 compounds from patent publication US5053338A, “Kinetic resolution of pyridazinones using lipase” (Glaxo Inc., priority 1990, dated 1991).

Test [1] deals with rat aorta. The note with it: R. F. Kauffman et al., J. Pharmacol. Exp. Ther. 242:864-872 (1987); cited from earlier work.
Test [2] has as its system rat aorta. Briefly: Rat Aorta Protocol (relaxation of phenylephrine-contracted rat aorta rings). The test is classed as cell-based. The note with it: phenylephrine 1×10^-7 M, methylene blue and propranolol present, endothelium removed, read-out: IC50 (concentration producing a relaxation equivalent to 50% of the maximal relaxation induced by nitroprusside). The method, then:
Such vasorelaxation appears to be related to inhibition of the phosphodiesterase (PDE) isozyme related to the cardiac sarcoplasmic reticulum. Thus, relaxation of rat aorta can be used as a screen to eliminate compounds which are not PDE inhibitors prior to testing for actual inotropic activity.
Rings of rat aorta (endothelium removed) were prepared for the measurement of isometric force in isolated tissue organ chambers essentially as previously described by T. J. Rimele et al in the Journal of Pharmacol. Exp. Ther. 245:102-111 (1988). The experimental portion of the protocol began with the addition of methylene blue (1×10^-5 M) and propranolol (1×10^-6 M) to each organ chamber to inhibit basal cGMP accumulation due to soluble guanylate cyclase and beta-adrenoceptors.Phenylephrine (1×10^-7 M) was then added and the rings were allowed to obtain a stable contractile response after which time, the test compound was added in a cumulative fashion. The relaxation induced by each concentration of the test compound was expressed as a percentage of the maximal relaxation produced by nitroprusside (1×10^-4 M) The results were graphically represented as a plot of the percentage relaxation vs. the negative log of the molar concentration of the test compound. […]

The subject of test [3] is anesthetized dogs (left ventricular dP/dt). Description: Anesthetized Dog: inotropic effect (increase in baseline dP/dt). The test is classed as in vivo. The following applies: infusion of atenolol. The method, then:
Inotropic effects were evaluated in barbiturate-anesthetized dogs by differentiating left intraventricular pressure. This procedure was carried out essentially as described by M. K. Grizzel et al in the FASEB Journal, Vol. 3, page 1039, abstract 4728 (1989). […] Cardiac output was determined via thermodilution with a Spectramed computer (Starcom, Oxnard, Calif.) and a 5F Swan Ganz catheter which was inserted into the right jugular vein and positioned in the pulmonary artery. […] A lead II electrocardiogram was measured using subcutaneous electrodes. […] Rectal temperature was monitored and maintained at 37°-38° C. with a heating pad (Baxter Health Care model K20, McGaw Park, Ill.). All variables were recorded using a Gould 3800S physiograph.
Isoproterenol ([…]) was injected i.v. into the cephalic vein at 10 min intervals except for when the test drug infusion was begun. […] Inhibition of the isoproterenol responses on contractibility (dP/dt), heart rate and diastolic blood pressure were determined at each dose of test compound. The inotropic effect of each compound was determined by comparing the level of dP/dt at the end of each 10 min period to that of the level of dP/dt just prior to the infusion of test compound. […]

For the compound `CSc1ccc(C(=O)c2[nH]c(=O)[nH]c2C)cc1` [enoximone], in the test on rat aorta [1], the “relaxation of rat aorta” value is “marked relaxation”.

With `Cc1[nH]c(=O)c(C#N)cc1-c1ccncc1` [milrinone], the “relaxation of rat aorta” value in the test with rat aorta [1] was “marked relaxation”.

With `O=C(COc1ccc(C2=NNC(=O)CC2)cc1Cl)NCCNC[C@H](O)COc1ccccc1` [Example 19, 6-{4-[N-[2-[3-phenoxy-2-hydroxypropylamino]ethyl]carbamoylmethoxy]-3-chlorophenyl}-4,5-dihydro-3(2H)-pyridazinone], in the test on rat aorta [2], the IC50 worked out at 340 nM. Also, the “effect of atenolol on the inotropic effects” value in test [3] is listed as “not blocked by atenolol”.
